Assay results taken from patent US20220259551A1, “METHODS OF OPTIMIZED EUGLENA FERMENTATION USING ENGINEERED TANK DESIGN” (NOBLEGEN INC., priority 2019, published 2022).

Test system: Euglena gracilis Z
Assay: Effect of organic acids, with or without glucose, on Euglena growth in shake flasks (Example 9)
Assay type: cell-based
Conditions: for % Increase in biomass between 48 h and 120 h / Net change in biomass: higher levels of acids (~2-5 g/L) solely or with glucose (~15 g/L); for higher acid contribution to biomass when fed along with glucose vs maximum acid alone contribution: higher acid concentrations (2-5 g/L); for higher acid contribution to biomass when fed along with glucose vs maximum acid alone contribution / further improvement in net biomass concentration compared to 48 h: end of 120 h; for higher biomass compared to control (glucose alone): higher levels of acids (~2-5 g/L) + glucose ~15 g/L; for higher biomass compared to control (glucose alone) / higher biomass compared to glucose alone (control) / net biomass: end of 48 h; for higher biomass compared to glucose alone (control): lower acid supplementation (~0.0005-0.05 g/L) + glucose 15 g/L
[1] = no glucose, acid conc. 0.05 g/L, 48 h
[2] = fumaric acid 0.0005 g/L + glucose 15 g/L, 48 h
[3] = lactic acid 0.05 g/L + glucose 15 g/L, 48 h

In the case of `O=C(O)/C=C/C(=O)O` [Fumaric acid only], the “% Increase in biomass between 48 h and 120 h” value (“% Increase” for short) is reported as 4.8%, the “Net change in biomass” value (incubation 48 h) is reported as 2.10 g/L and the “Net change in biomass” value (incubation 120 h) is reported as 2.20 g/L. For the same compound, the “Net biomass conc. (48 h)” value (no glucose, acid conc. 0.0005 g/L, 48 h) was 0.70 g/L.

For `O=C[C@H](O)[C@@H](O)[C@H](O)[C@H](O)CO` [Glucose (Control)], the “Net biomass conc. (48 h)” value (Glucose conc. 15 g/L, no acid, 48 h) was 6.70 g/L, the “% Increase” value was 0.0% and the “Net change in biomass” value (incubation 48 h) was 6.50 g/L. The “Net change in biomass” value (incubation 120 h) was 6.50 g/L.

In the case of `CC(O)C(=O)O` (stereo not drawn) [Lactic acid only], the “% Increase” value is reported as 9.5%, the “Net change in biomass” value (incubation 48 h) is reported as 2.10 g/L and the “Net change in biomass” value (incubation 120 h) is reported as 2.30 g/L. The “Net biomass conc. (48 h)” value [1] was 0.60 g/L.

For `O=C(O)CC(O)C(=O)O` (stereo not drawn) [Malic acid only], the “% Increase” value was −7.1%, the “Net change in biomass” value (incubation 48 h) was 1.40 g/L and the “Net change in biomass” value (incubation 120 h) was 1.30 g/L. For the same compound, the “Net biomass conc. (48 h)” value [1] was 0.60 g/L.

With `CC(=O)C(=O)O` [Pyruvate only] the “% Increase” value was −11.1%, the “Net change in biomass” value (incubation 48 h) was 0.90 g/L and the “Net change in biomass” value (incubation 120 h) was 0.80 g/L. The “Net biomass conc. (48 h)” value [1] was 1.00 g/L.

In the case of `O=C(O)CCC(=O)O` [Succinic acid only], the “% Increase” value is reported as 13.6%, the “Net change in biomass” value (incubation 48 h) is reported as 2.20 g/L and the “Net change in biomass” value (incubation 120 h) is reported as 2.50 g/L. For the same compound, the “Net biomass conc. (48 h)” value [1] was 0.70 g/L.

With `O=C(O)/C=C/C(=O)O` [fumaric acid] the conversion efficiency (15 g/L glucose and 2 g/L fumaric acid, 120 h) was 57.4%, the conversion efficiency (15 g/L glucose and 5 g/L fumaric acid, 120 h) was 58.41% and the “biomass yield (g)/g of carbon, higher than glucose alone” value [2] was 8.4%. For the same compound, the “higher conversion efficiency compared to glucose alone (15 g/L)” value [2] was 21.9%, the maximum biomass obtained (fumaric acid 2 g/L and 5 g/L) was roughly 1.5 g/L and the “higher acid contribution to biomass when fed along with glucose vs maximum acid alone contribution” value was 46.67%. For the same compound, the “higher biomass compared to control (glucose alone)” value (from here on “higher biomass compared to control”) was 12.3%, the “higher biomass compared to glucose alone (control)” value was 7.5% and the net biomass (~5 g/L as sole carbon source) was 2.10 g/L.

With `CC(O)C(=O)O` (stereo not drawn) [lactic acid] the “higher acid contribution to biomass when fed along with glucose vs maximum acid alone contribution” value was 5.56%, the “higher biomass compared to control” value was 1.5% and the “biomass yield (g)/g of carbon” value [3] was 1.35 g/g of carbon. The “biomass yield (g)/g of carbon, higher than the control” value [3] was roughly 13%, the conversion efficiency [3] was 54.8% and the “conversion efficiency, higher than the glucose control” value [3] was roughly 8%. The “higher biomass compared to glucose alone (control)” value was 13.4%, the net biomass (~5 g/L as sole carbon source) was 2.10 g/L and the “further improvement in net biomass concentration compared to 48 h” value (~5 g/L as sole carbon source) was 9.5%.

In the case of `O=C(O)CC(O)C(=O)O` (stereo not drawn) [malic acid], the “higher acid contribution to biomass when fed along with glucose vs maximum acid alone contribution” value is reported as 63.64%, the “higher biomass compared to control” value is reported as 4.6% and the “higher biomass compared to glucose alone (control)” value is reported as −3%. The net biomass (~5 g/L as sole carbon source) was 1.40 g/L.

With `CC(=O)C(=O)O` [pyruvate, pyruvic acid] the “higher acid contribution to biomass when fed along with glucose vs maximum acid alone contribution” value was 72.73% and the net biomass (~2 g/L as sole carbon source) was 0.90 g/L.

With `O=C(O)CCC(=O)O` [succinate, succinic acid] the “higher biomass compared to control” value was 3.1%, the net biomass (~5 g/L as sole carbon source) was 2.20 g/L and the “further improvement in net biomass concentration compared to 48 h” value (~5 g/L as sole carbon source) was 13.6%.
